The results in this text go back to patent US20060281680A1, “Methods and compositions for modulating vascular integrity” (GENENTECH, INC., priority 2005, published 2006).

Holding throughout (assay type): cell-based, human
In one experiment the test system is NFATc1. As to the kind of experiment: IHC/immunofluorescence analysis of nuclear translocation of NFATc1. The conditions noted are these: endothelial cells, 20 minutes after VEGF 30 ng/mL; adenoviral transduction MOI=100. Here is the method: Primary human endothelial cells (7×10^3 cells/cm^2) were seeded into each well of an 8-chamber microscope slide (Nalgene Nunc, Naperville, Ill.) 24 hours prior to staining. Cells were infected with adenovirus (multiplicity of infection [MOI]=100) encoding for LacZ or DSCR1 for 2 hours in serum-free media containing 10 mM CaCl2 and 10 nM MgCl2 on a vertical shaker at room temperature. Thereafter, 5 times the volume of regular growth medium was added and cells were kept for 2 days in a CO2 incubator. After replacing the media, cells were treated with hVEGF at a concentration of 30 ng/mL for 20 minutes. Prior to incubation with various antibodies, cells were fixed with methanol for 4 minutes at −20° C. and washed with PBS at room temperature. Cells were incubated in PBS containing the primary mouse antihuman NFATc1 antibody (sc7294, Santa Cruz Biotechnology) for 1 hour at room temperature. Cells were then washed 3 times with PBS and incubated in PBS containing Alexa Fluor 488 antimouse IgG (Molecular Probes, Eugene, Oreg.). Cells were finally washed 3 times with PBS and mounted beneath coverslips in Vectashield medium (Vector Laboratories). Microscopy and photography were conducted using a Zeiss Axiovert 200 fluorescence microscope fitted with an AxioCam MR monochrome camera (Zeiss, Thornwood, N.Y.) using a ×63 oil objective.

In experiment [1] the test system is DSCR1. As to the kind of experiment: DSCR1 expression analysis by real-time RT-PCR (TaqMan) in HUVECs. The conditions noted are these: serum-starved HUVECs, over 36 hours. The source says: (§1) Cells and cell assays. Primary human endothelial cells were purchased from Clonetics (Santa Rosa, Calif.) and cultured according to the manufacturer's instructions. For gene calling experiments, human umbilical vein endothelial cells (HUVECs) were purchased from Clonetics (BioWhittaker, Walkersville, Md.) and maintained in endothelial growth medium (EBM-2) complemented with 5% fetal calf serum (FCS) following the manufacturer's instructions. Cells (1×107) were split at a cell density of 19 000 cell/cm2 and triplicate experiments for each condition were run in parallel. Twenty-four hours after plating the cells, cell were washed 3 times with phosphate-buffered saline (PBS) and media (Clonetics) containing either 0.1% bovine serum albumin (BSA) or 0.1% BSA plus VEGF (30 ng/mL) or 5% FCS. RNA isolation and reverse transcription-PCR (RT-PCR) analysis was performed as described.^21 For cell culture experiments, the following conditions were used: human (h) VEGF, 30 ng/mL; hTNF-α, 10 ng/mL; PMA, 200 ng/mL (Calbiochem, LaJolla, Calif.); CsA, 1 μM (Calbiochem); IO 5 μM (Sigma, St Louis, Mo.); thapsigargin, 50 nM (Sigma). In one instance inhibiting (si) RNAs were generated by Dharmacon (Lafayette, Colo.) based on the full-length cDNAs of the respective gene and using the “Smart-pool” service (Dharmacon, Lafayette, Colo.). For adenoviral transduction survival experiments, human umbilical vein endothelial cells (HUVECs) were maintained in endothelial growth medium (EBM-2) complemented with 5% FCS following the manufacturer's instructions. 3×10^5 cells were split per well of a 6 well plate (Primaria, BD Biosciences, Bedford, Mass.) and duplicate experiments for each condition were run in parallel. Cells were infected with adenovirus (MOI=100) encoding for a gD peptide (Ad-Control), DSCR1 (Ad-DSCR1) or an antisense construct with the coding sequence inverted (Ad-DSCR1-AS) for 2 h in serum free media containing 10 mM […] and 10 nM MgCl2 on a vertical shaker at room temperature. Thereafter, 5 times the volume of regular growth medium containing 5% FCS was added and cells were kept for 1 day in a CO2 incubator. Thereafter, cells were washed three times with PBS and basal media (Clonetics, Santa Rosa, Calif.) containing 0.1 % BSA was added and PMA/IO, H202, and ZVAD as indicated. 24 hours after serum starvation and dosing, cell were counted on a Coulter brand style cell counter. For cell culture experiments, the following conditions were used: PMA: 200 ng/ml (Calbiochem, LaJolla, Calif.), Ionomycine: 5 μM (Sigma, St. Louis, Mo.), a 3% H202 solution was diluted 1:300 in basal media, 0.1% BSA to result in a 0.01% H202 solution, ZVAD 5 μM.
Background: Real-time PCR tracks product formation cycle by cycle.

The subject of experiment [2] is DSCR1. Kind of experiment: GeneCalling analysis of DSCR1 mRNA expression in HUVECs. The conditions noted are these: VEGF 30 ng/mL, relative to basal conditions. The source says:
(§2) Cells and cell assays. Primary human endothelial cells were purchased from Clonetics (Santa Rosa, Calif.) and cultured according to the manufacturer's instructions. For gene calling experiments, human umbilical vein endothelial cells (HUVECs) were purchased from Clonetics (BioWhittaker, Walkersville, Md.) and maintained in endothelial growth medium (EBM-2) complemented with 5% fetal calf serum (FCS) following the manufacturer's instructions. Cells (1×107) were split at a cell density of 19 000 cell/cm2 and triplicate experiments for each condition were run in parallel. Twenty-four hours after plating the cells, cell were washed 3 times with phosphate-buffered saline (PBS) and media (Clonetics) containing either 0.1% bovine serum albumin (BSA) or 0.1% BSA plus VEGF (30 ng/mL) or 5% FCS. RNA isolation and reverse transcription-PCR (RT-PCR) analysis was performed as described.^21 For cell culture experiments, the following conditions were used: human (h) VEGF, 30 ng/mL; hTNF-α, 10 ng/mL; PMA, 200 ng/mL (Calbiochem, LaJolla, Calif.); CsA, 1 μM (Calbiochem); IO 5 μM (Sigma, St Louis, Mo.); thapsigargin, 50 nM (Sigma). […] 24 hours after serum starvation and dosing, cell were counted on a Coulter brand style cell counter. […]

In a further experiment the test system is Cox-2, E-selectin, TF. Kind of experiment: Real-time RT-PCR of inflammatory marker / VEGF target genes in HUVECs.
From the text: as §1

The next experiment deals with HUVECs. Kind of experiment: GeneCalling gene expression profiles of stimulated HUVECs.
From the text: as §2

The test system of experiment [3] is DSCR1. As to the kind of experiment: Western blot of DSCR1 protein in whole cell extracts of HUVECs. Conditions: 6 hours of stimulation. As to the method:
Cells cultured in 10-cm dishes were washed twice in Tris (tris(hydroxymethyl)aminomethane)-buffered saline, and 0.6 mL RIPA buffer (10 mM PBS, 1% Nonidet P-40, 0.5% sodium deoxycholate, 0.1% sodium dodecyl sulfate [SDS], […] phenylmethylsulfonyl fluoride, 30 μg/mL aprotinin, 1 mM sodium orthovanadate), and protease inhibitors (Roche Pharmaceuticals, Gaithersburg, Md.) were added. Mouse monoclonal antibody (mAb) directed against human NFATc 1, c2, and c3 was purchased from Santa Cruz Biotechnology (Santa Cruz, Calif.). Affinity-purified goat polyclonal antibody against human E-selectin, vascular cell adhesion molecule-1 (VCAM-1), intercellular adhesion molecule-1 (ICAM-1), and Cox-2 was from BD Pharmingen. Total endothelial cell extract, polyacrylamide gel electrophoresis (PAGE), blotting, and immunodetection were performed according to the Santa Cruz Biotechnology protocol. A total of […] whole-cell extract was loaded on each lane of a 4% to 16% polyacrylamide gel. The enhanced chemiluminescence (ECL) reaction kit was purchased from Amersham Pharmacia Biotech (Piscataway, N.J.), and horseradish peroxidase streptavidin from Vector Laboratories (Burlingame, Calif.) was used. For NFATc1 experiments, equal amounts of cell extract were loaded to visualize NFATc1 (mAb 7A6; 1:500; Santa Cruz Biotechnology) and the loading control α-tubulin (mAb from ICN, Santa Ana, Calif.; 1:5000). For Cox-2 and TF immunoblot analysis equal amounts of cell lysate were loaded on a 6% to 12% gradient SDS-PAGE. Cox-2 was analyzed with an anti-Cox2 mAb (RDI, 1:500) and TF with an anti-hTF mAb (clone 7G11) was generated at Genentech, and used at a 1:500 dilution. Before loading the samples on the gel, the protein amounts were quantified and adjusted accordingly. As loading control, an anti-γ-adaptin mAb was used (1:1000) on a 4% to 20% polyacrylamide gel.
DSCR1 was PCR amplified with primers DSCR1-EcoRI-Pro 5′, adding an extra proline and DSCR1-Stop-XhoI 3′, by using DSCR1 cDNA as a template and cloned into pGEX-KG. GST-DSCR1 was expressed and purified essentially as described previously.^23 Polyclonal rabbit anti-GST-DSCR1 was prepared by immunization with recombinant GST-DSCR1. Filtered crude serum was used for Western blots (1:400).

Experiment [4] concerns DSCR1. Kind of experiment: DSCR1 expression by real-time RT-PCR in HPAECs, HMVECs and HUAECs. Conditions: HMVECs, HUAECs.
From the text: as §2

With VEGF, the “nuclear localization of NFATc1” value with NFATc1 was “prominent nuclear localization of NFATc1”. Moreover, the “DSCR1 expression levels (real-time RT-PCR)” value with DSCR1 [1] was “induced prolonged expression of DSCR1”. The “induced DSCR1 mRNA expression” value amounted to 4.8 fold with DSCR1 [2] (after 6 hours) and 2.9 fold in the experiment with DSCR1 [2] (after 24 hours). The “expression of Bcl-2” value in the experiment with Cox-2, E-selectin, TF (HUVECs, VEGF stimulation, entire experiment) was “consistently expressed”. Besides, the “GM-CSF, TF, COX-2, VCAM-1 and E-selectin RNA levels” value is given as “increased” in the experiment on Cox-2, E-selectin, TF (HUVECs, between 0 and 2 hours after VEGF); “reversed into repression” with Cox-2, E-selectin, TF (HUVECs, between 6 and 36 hours after VEGF, compared to untreated cells). In the experiment with Cox-2, E-selectin, TF (endothelial cells, 4 hours of incubation), the “increase in gene expression (COX2, E-selectin, TF mRNA)” value is 2- to 3 fold. The “changes in traces representing alterations in expression of genes” value was determined as 1.7% in the experiment on HUVECs (after 6 hours) and 3.4% in the experiment with HUVECs (after 24 hours). The DSCR1 protein levels entry in the experiment on DSCR1 [3] is given as “induction of DSCR1”. In the experiment with DSCR1 [4], the “DSCR1 expression (real-time RT-PCR)” value was “increased levels of DSCR1 expression”.
